Measured values reported in patent US20220282271A1, “HERBICIDE RESISTANT PLANTS AND METHODS OF MAKING AND USING” (OFFICE OF INNOVATION ADVANCEMENT AND COMMERCIALIZATION, priority 2019, published 2022).
Where two headings read alike, the source gives them in different places.

Legend:
[1] = biological target: T1, recombinant variant E. indica PPO1 A212T (Eleusine indica, UniProt A0A6G5XNV7, A212T); assay: In vitro PPO enzyme activity inhibition, variant PPO1 A212T; assay type: biochemical; conditions: for inhibition at 10 µM: read-out: Variant E. indica PPO1 A212T % inhibition
T1 sequence (A0A6G5XNV7 entry or part of it A212T): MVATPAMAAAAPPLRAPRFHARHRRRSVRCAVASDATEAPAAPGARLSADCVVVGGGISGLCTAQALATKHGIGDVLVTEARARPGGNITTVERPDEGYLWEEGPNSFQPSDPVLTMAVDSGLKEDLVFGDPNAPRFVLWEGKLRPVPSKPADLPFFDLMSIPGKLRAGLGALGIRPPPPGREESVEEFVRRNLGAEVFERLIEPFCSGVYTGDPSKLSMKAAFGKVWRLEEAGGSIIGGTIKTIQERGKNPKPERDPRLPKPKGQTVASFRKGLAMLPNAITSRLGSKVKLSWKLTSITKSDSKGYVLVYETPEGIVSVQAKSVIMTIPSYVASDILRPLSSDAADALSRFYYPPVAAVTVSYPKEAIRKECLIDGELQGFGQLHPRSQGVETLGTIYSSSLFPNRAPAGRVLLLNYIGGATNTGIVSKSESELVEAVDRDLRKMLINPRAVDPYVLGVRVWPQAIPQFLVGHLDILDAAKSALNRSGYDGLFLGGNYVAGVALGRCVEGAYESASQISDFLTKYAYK
Description: (§1) Effects of A212T substitution were studied using the E. indica backbone. The wild-type E. indica PPO1 and the E. indica PPO1 A212T variants were synthesized de novo and subcloned into pRSetB plasmid (Invitrogen, Carlsbad, Calif.). The complete description of expression and purification of E. indica PPO1 and E. indica PPO1 A212T variant proteins were referenced to the method described for PPO2 by Rangani et al. (2019, Frontiers in Plant Sci., 10:568). Six PPO inhibitors, belonging to five different chemical families, were evaluated on the PPO enzyme activity at a concentrations ranging from 5.00×10^−5M to 5.12×10^−12M. Oxadiazon, sulfentrazone, saflufenacil and lactofen are from the class of oxadiazole, triazolinone, pyrimidinedione, and diphenyl ether, respectively. Flumioxazin and trifludimoxazin are from the same chemical family, N-phenylphthalimide. […] The assay was replicated twice.

[2] = test system: Eleusine indica biotypes (S, R1, R2); assay: Herbicide rate screening assay (greenhouse, foliar-applied, visual injury); assay type: in vivo; conditions: for I50, estimated rate required to reduce Eleusine indica biotype by 50% (Visual Control/Injury) / I90, estimated rate required to reduce Eleusine indica biotype by 90% (Visual Control/Injury): injury scores 14 days after treatment; for Parameter estimate a of sigmoidal model y = a/(1 + exp(−(x − x0)/b)) for percent injury / Parameter estimate b of sigmoidal model y = a/(1 + exp(−(x − x0)/b)) for percent injury / Parameter estimate x0 of sigmoidal model y = a/(1 + exp(−(x − x0)/b)) for percent injury: x = log-transformed herbicide rate (kg/ha), 14 DAT
Description: Three E. indica biotypes from different locations were used in this study. The R1 biotype was collected in Country Club of Virginia, Richmond, Va., and the R2 biotype was from River Bend Golf, New Bern, N.C. These two biotypes were previous confirmed resistant to preemergence application of oxadiazon, but have not been screened to other PPO inhibitors. The S biotype was collected from the Alabama Agricultural Experiment Station, Plant Breeding Unit, Tallassee, Ala., which was confirmed susceptible to PPO inhibitors. Seeds of the mature plants were harvested, air dried and stored in the 4° C. freezer until planted in the greenhouse.
Greenhouse conditions were 30±3° C. at day/night temperature and ˜70% average relative humidity. The E. indica seeds were placed on the soil surface and lightly covered with sand in 28 cm*20 cm flats and watered as needed daily to ensure germination. Two weeks after emergence, seedlings were separated and transplanted to in individual 10-cm pots (volumes=0.5 L). Pots were filled with surface horizon of Marvyn sandy loam (fine-loamy, kaolinitic, thermic Typic Kanhapludults) soil with pH 6.4 and 1.2% organic matter. The plants were irrigated three times daily for 2 min with overhead irrigation and fertilized once at one week after transplanting at approximately 50 kg N ha^−1 with Scott's Miracle-Gro All-Purpose fertilizer (The Scotts Miracle-Gro Co. Marysville, Ohio). Plants were 5-10 cm in height with 3-5 tillers in size at the time of herbicide treatment.
Herbicide treatments were foliar-applied at 280 L/ha using an enclosed spray chamber with a single 8002E nozzle (TeeJet Spray Systems Co, Wheaton, Ill.) at 32 PSI. Four herbicides were selected for the experiment: oxadiazon (Ronstar FLO, Bayer Environmental Sci., Research Triangle Park, N.C.), sulfentrazone (Dismiss, FMC Corporation, Philadelphia, Pa.), flumioxazin (Sureguard, Valent Corp., Walnut Creek, Calif.) and lactofen (Cobra, Valent Corp., Walnut Creek, Calif.). All the herbicides are from different herbicide chemical families of PPO inhibitors: oxadiazoles, triazolinone, N-phenylphthalimide and diphenyl ether, respectively. Herbicides were applied at 7 different rates based on each herbicide label rate: oxadiazon ranging from 0.14 to 8.96 kg/ha, sulfentrazone from 0.07 to 4.50 kg/ha, flumioxazin from 0.08 to 5.70 kg/ha, and lactofen from 0.029 to 1.75 kg/ha. A non-treated control (0 kg/ha) was included. 192 plants of each biotype were tested and experiments were conducted as completely random design, three replications for two runs.
The visual injury rating scores per plant at 14 days after treatment (DAT) were recorded, where the visual injury rating scores were based on a 0 to 100 scale, which 0 is equated to no phytotoxicity and 100 is equated to complete control. Data subjected to ANOVA analysis at a significance level of P<0.05 using the PROC GLM procedure of SAS 9.4 (SAS Institute Inc., Cary, N.C.). All the herbicide rates were log transformed to make equal spacing between the herbicide treatments in order to facilitate regression analysis. The non-treated control was transformed to equal spacing based on the log rates of each herbicide, respectively. Data were fitted to a sigmoidal model using SigmaPlot 10.2 (Systat Software Inc., London, UK) using a sigmoidal function (Equation 1).
y=a/(1+e^(−((x−x0)/b))) (1)
In this fit sigmoidal model, where y represents E. indica visual damage relative to non-treated control (%), x represents the log-transformed herbicide rates (kg/ha), three parameters (a, b, x0) represents the y intercept.

[3] = biological target: T2, recombinant wild-type E. indica PPO1 (Eleusine indica, UniProt A0A6G5XNV7); assay: In vitro PPO enzyme activity inhibition, wild-type PPO1; assay type: biochemical; conditions: for inhibition at 10 µM / Wild-type E. indica PPO1 % inhibition: highest herbicide concentration 10^−5 M
T2 sequence (A0A6G5XNV7 1-529): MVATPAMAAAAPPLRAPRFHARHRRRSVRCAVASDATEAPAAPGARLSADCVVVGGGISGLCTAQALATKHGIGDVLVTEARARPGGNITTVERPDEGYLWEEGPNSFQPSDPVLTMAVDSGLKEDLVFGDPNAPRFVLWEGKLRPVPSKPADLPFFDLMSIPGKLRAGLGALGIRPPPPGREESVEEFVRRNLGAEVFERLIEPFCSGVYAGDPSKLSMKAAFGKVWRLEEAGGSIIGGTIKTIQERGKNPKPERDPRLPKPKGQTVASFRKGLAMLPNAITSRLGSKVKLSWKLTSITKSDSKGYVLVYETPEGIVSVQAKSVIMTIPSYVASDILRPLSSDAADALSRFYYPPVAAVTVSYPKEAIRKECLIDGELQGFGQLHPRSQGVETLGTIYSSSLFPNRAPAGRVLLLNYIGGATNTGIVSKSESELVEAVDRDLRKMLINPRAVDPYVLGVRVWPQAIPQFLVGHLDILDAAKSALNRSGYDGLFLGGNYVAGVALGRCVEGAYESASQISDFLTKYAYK
Description: as §1, with “Six PPO inhibitors, belonging to five different chemical families, were evaluated on the PPO enzyme activity at a concentrations ranging from 5.00×10^−5M to 5.12×10^−12M.” left out

[4] = biological target: T1, recombinant variant E. indica PPO1 A212T; assay: In vitro PPO enzyme activity inhibition, variant PPO1 A212T; assay type: biochemical; conditions: highest herbicide concentration 10^−5 M
[5] = recombinant enzyme, in vitro, read-out: Wild-type E. indica PPO1 sensitivity [IC50]

SMILES | IC50 [1] [nM] | inhibition at 10 µM [1] [%] | I50, estimated rate required to reduce Eleusine indica biotype by 50% (Visual Control/Injury) ([2]; R1 biotype) [kg ha^−1] | I90, estimated rate required to reduce Eleusine indica biotype by 90% (Visual Control/Injury) ([2]; R1 biotype) [kg ha^−1] | Parameter estimate a of sigmoidal model y = a/(1 + exp(−(x − x0)/b)) for percent injury ([2]; R1 biotype) | Parameter estimate b of sigmoidal model y = a/(1 + exp(−(x − x0)/b)) for percent injury ([2]; R1 biotype) | Parameter estimate x0 of sigmoidal model y = a/(1 + exp(−(x − x0)/b)) for percent injury ([2]; R1 biotype) | I50, estimated rate required to reduce Eleusine indica biotype by 50% (Visual Control/Injury) ([2]; R2 biotype) [kg ha^−1] | I90, estimated rate required to reduce Eleusine indica biotype by 90% (Visual Control/Injury) ([2]; R2 biotype) [kg ha^−1] | Parameter estimate a of sigmoidal model y = a/(1 + exp(−(x − x0)/b)) for percent injury ([2]; R2 biotype) | Parameter estimate b of sigmoidal model y = a/(1 + exp(−(x − x0)/b)) for percent injury ([2]; R2 biotype) | Parameter estimate x0 of sigmoidal model y = a/(1 + exp(−(x − x0)/b)) for percent injury ([2]; R2 biotype) | I50, estimated rate required to reduce Eleusine indica biotype by 50% (Visual Control/Injury) ([2]; S biotype) [kg ha^−1] | I90, estimated rate required to reduce Eleusine indica biotype by 90% (Visual Control/Injury) ([2]; S biotype) [kg ha^−1] | Parameter estimate a of sigmoidal model y = a/(1 + exp(−(x − x0)/b)) for percent injury ([2]; S biotype) | Parameter estimate b of sigmoidal model y = a/(1 + exp(−(x − x0)/b)) for percent injury ([2]; S biotype) | Parameter estimate x0 of sigmoidal model y = a/(1 + exp(−(x − x0)/b)) for percent injury ([2]; S biotype) | IC50 [3] [nM] | inhibition at 10 µM [3] [%] | Wild-type E. indica PPO1 % inhibition [3] [%] | further results
Cc1nn(-c2cc(NS(C)(=O)=O)c(Cl)cc2Cl)c(=O)n1C(F)F [Sulfentrazone, sulfentrazone] | 1870 | 76 | 0.15 | 0.32 | 95.12 | 0.12 | −0.84 | 0.18 | 0.63 | 100.90 | 0.25 | −0.73 | 0.08 | 0.19 | 98.21 | 0.16 | −1.10 | 275 | > 90 | – | –
CCOC(=O)C(C)OC(=O)c1cc(Oc2ccc(C(F)(F)F)cc2Cl)ccc1[N+](=O)[O-] (stereo not drawn) [Lactofen, lactofen] | 362 | > 90 | 0.04 | 0.51 | 84.65 | 0.29 | −1.44 | 0.06 | 0.50 | 89.20 | 0.30 | −1.31 | 0.03 | 0.17 | 90.29 | 0.13 | −1.52 | 26.4 | > 90 | >90 | Variant E. indica PPO1 A212T % inhibition [4]: >90%
C#CCN1C(=O)C(F)(F)Oc2cc(F)c(-n3c(=O)n(C)c(=S)n(C)c3=O)cc21 [Trifludomoxazin, trifludimoxazin] | – | – | – | – | – | – | – | – | – | – | – | – | – | – | – | – | – | – | – | >90 | IC50 ([1]; recombinant enzyme, in vitro, read-out: Variant E. indica PPO1 A212T sensitivity [IC50]): 26.5 nM; IC50 [3, 5]: 17.1 nM; Variant E. indica PPO1 A212T % inhibition [4]: >90%
C#CCN1C(=O)COc2cc(F)c(N3C(=O)C4=C(CCCC4)C3=O)cc21 [Flumioxazin, flumioxazin] | 13.4 | > 90 | 0.08 | 0.10 | 96.53 | 0.04 | −1.11 | 0.08 | 0.10 | 96.81 | 0.04 | −1.11 | 0.08 | 0.09 | 98.00 | 0.02 | −1.09 | 16.7 | > 90 | >90 | Variant E. indica PPO1 A212T % inhibition [4]: >90%
CC(C)N(C)S(=O)(=O)NC(=O)c1cc(-n2c(=O)cc(C(F)(F)F)n(C)c2=O)c(F)cc1Cl [Saflufenacil, saflufenacil] | 449 | > 90 | – | – | – | – | – | – | – | – | – | – | – | – | – | – | – | – | > 90 | – | IC50 [3, 5]: 19.4 nM
